HELM strings list units from the 5' end as sugar, base in round brackets, then linkage (d deoxyribose, r ribose, m 2'-O-methyl, p phosphodiester). Strings are as the collection lists them; they lack the last nucleoside at the 3' end of the tested compound. [moe] = 2'-O-(2-methoxyethyl) (MOE); [sp] = phosphorothioate linkage; [m5C] = 5-methylcytosine
Biological target: SCN2A
Assay: mouse, dose not given
Conditions: ASO

Which 3 h FOB score does the source give for “RNA1{[moe](A)[sp].[moe](A)p.[moe](G)p.[moe](T)p.[moe](A)p.d(G)[sp].d(T)[sp].d(A)[sp].d([m5C])[sp].d([m5C])[sp].d(A)[sp].d(T)[sp].d(T)[sp].d([m5C])[sp].d([m5C])[sp].[moe]([m5C])p.[moe](A)p.[moe](T)[sp].[moe]([m5C])}$$$$ (last 3' nucleoside missing)” here?
Its 3 h FOB score is 0 score 0-7.

With “RNA1{[moe](A)[sp].[moe](A)p.[moe](T)p.[moe](T)p.[moe]([m5C])p.[moe](T)p.d(A)[sp].d(T)[sp].d(T)[sp].d(T)[sp].d(T)[sp].d(A)[sp].d(T)[sp].d(A)[sp].d(A)[sp].d(A)[sp].[moe](T)p.[moe](G)[sp].[moe]([m5C])}$$$$ (last 3' nucleoside missing)” as the substance, how does the 3 h FOB score read?
Its 3 h FOB score is 0.33 score 0-7.

How did the 3 h FOB score turn out when “RNA1{[moe](A)[sp].[moe](A)p.[moe](T)p.[moe](T)p.[moe]([m5C])p.d(T)[sp].d(A)[sp].d(T)[sp].d(T)[sp].d(T)[sp].d(T)[sp].d(A)[sp].d(T)[sp].d(A)[sp].d(A)[sp].[moe](A)p.[moe](T)p.[moe](G)[sp].[moe]([m5C])}$$$$ (last 3' nucleoside missing)” was run?
The 3 h FOB score was 0 score 0-7.

How did the 3 h FOB score turn out when “RNA1{[moe](A)[sp].[moe](A)p.[moe](T)p.[moe](T)p.d([m5C])[sp].d(T)[sp].d(A)[sp].d(T)[sp].d(T)[sp].d(T)[sp].d(T)[sp].d(A)[sp].d(T)[sp].d(A)[sp].[moe](A)p.[moe](A)p.[moe](T)p.[moe](G)[sp].[moe]([m5C])}$$$$ (last 3' nucleoside missing)” was run?
Its 3 h FOB score is 0 score 0-7.

“RNA1{[moe](A)[sp].[moe](A)p.[moe](T)p.[moe]([m5C])p.[moe](A)p.[moe]([m5C])p.d(T)[sp].d(T)[sp].d(T)[sp].d([m5C])[sp].d(A)[sp].d(T)[sp].d([m5C])[sp].d([m5C])[sp].d(A)[sp].d([m5C])[sp].[moe](G)p.[moe](A)[sp].[moe]([m5C])}$$$$ (last 3' nucleoside missing)” was tested. Which 3 h FOB score did it give?
The 3 h FOB score was 0 score 0-7.

For “RNA1{[moe](A)[sp].[moe](A)p.[moe](T)p.[moe]([m5C])p.[moe](A)p.d([m5C])[sp].d(T)[sp].d(T)[sp].d(T)[sp].d([m5C])[sp].d(A)[sp].d(T)[sp].d([m5C])[sp].d([m5C])[sp].d(A)[sp].[moe]([m5C])p.[moe](G)p.[moe](A)[sp].[moe]([m5C])}$$$$ (last 3' nucleoside missing)”, which 3 h FOB score is on record?
Its 3 h FOB score is 0 score 0-7.

How did the 3 h FOB score turn out when “RNA1{[moe](A)[sp].[moe](A)p.[moe](T)p.[moe]([m5C])p.d(A)[sp].d([m5C])[sp].d(T)[sp].d(T)[sp].d(T)[sp].d([m5C])[sp].d(A)[sp].d(T)[sp].d([m5C])[sp].d([m5C])[sp].[moe](A)p.[moe]([m5C])p.[moe](G)p.[moe](A)[sp].[moe]([m5C])}$$$$ (last 3' nucleoside missing)” was run?
The 3 h FOB score was 0.33 score 0-7.

For “RNA1{[moe](A)[sp].[moe](G)p.[moe](T)p.[moe](T)p.d(T)[sp].d(T)[sp].d(T)[sp].d(T)[sp].d([m5C])[sp].d(A)[sp].d(T)[sp].d(T)[sp].d(G)[sp].d([m5C])[sp].[moe](A)p.[moe](T)p.[moe]([m5C])p.[moe]([m5C])[sp].[moe](T)}$$$$ (last 3' nucleoside missing)”, which 3 h FOB score is on record?
The 3 h FOB score was 3 score 0-7.

“RNA1{[moe](A)[sp].[moe](G)p.[moe]([m5C])p.[moe](A)p.[moe](T)p.[moe](G)p.d(T)[sp].d(T)[sp].d(T)[sp].d(A)[sp].d(T)[sp].d([m5C])[sp].d(T)[sp].d(T)[sp].d(A)[sp].d(G)[sp].[moe](T)p.[moe](T)[sp].[moe]([m5C])}$$$$ (last 3' nucleoside missing)” was tested. Which 3 h FOB score did it give?
Its 3 h FOB score is 1 score 0-7.

How did the 3 h FOB score turn out when “RNA1{[moe](A)[sp].[moe](G)p.[moe]([m5C])p.[moe](A)p.[moe](T)p.d(G)[sp].d(T)[sp].d(T)[sp].d(T)[sp].d(A)[sp].d(T)[sp].d([m5C])[sp].d(T)[sp].d(T)[sp].d(A)[sp].[moe](G)p.[moe](T)p.[moe](T)[sp].[moe]([m5C])}$$$$ (last 3' nucleoside missing)” was run?
Its 3 h FOB score is 0 score 0-7.

Which 3 h FOB score does the source give for “RNA1{[moe](A)[sp].[moe](G)p.[moe]([m5C])p.[moe](A)p.d(T)[sp].d(A)[sp].d(T)[sp].d(T)[sp].d([m5C])[sp].d(T)[sp].d(A)[sp].d(A)[sp].d([m5C])[sp].d(A)[sp].[moe](T)p.[moe](G)p.[moe](G)p.[moe](T)[sp].[moe]([m5C])}$$$$ (last 3' nucleoside missing)” here?
The 3 h FOB score was 0 score 0-7.

How did the 3 h FOB score turn out when “RNA1{[moe](A)[sp].[moe](G)p.[moe]([m5C])p.[moe](A)p.d(T)[sp].d(G)[sp].d(T)[sp].d(T)[sp].d(T)[sp].d(A)[sp].d(T)[sp].d([m5C])[sp].d(T)[sp].d(T)[sp].[moe](A)p.[moe](G)p.[moe](T)p.[moe](T)[sp].[moe]([m5C])}$$$$ (last 3' nucleoside missing)” was run?
The 3 h FOB score was 0 score 0-7.

Which 3 h FOB score does the source give for “RNA1{[moe](A)[sp].[moe](G)p.[moe]([m5C])p.[moe](T)p.[moe]([m5C])p.d(T)[sp].d(T)[sp].d(T)[sp].d(T)[sp].d(T)[sp].d([m5C])[sp].d(A)[sp].d([m5C])[sp].d(T)[sp].d(T)[sp].[moe](T)p.[moe](T)p.[moe](G)[sp].[moe](G)}$$$$ (last 3' nucleoside missing)” here?
Its 3 h FOB score is 0.67 score 0-7.

How did the 3 h FOB score turn out when “RNA1{[moe](A)[sp].[moe](T)p.[moe](A)p.[moe](T)p.[moe](T)p.[moe](T)p.d(T)[sp].d(T)[sp].d([m5C])[sp].d(T)[sp].d(A)[sp].d([m5C])[sp].d(A)[sp].d([m5C])[sp].d(T)[sp].d(G)[sp].[moe]([m5C])p.[moe](T)[sp].[moe](G)}$$$$ (last 3' nucleoside missing)” was run?
The 3 h FOB score was 2 score 0-7.

Which 3 h FOB score does the source give for “RNA1{[moe](A)[sp].[moe](T)p.[moe](A)p.[moe](T)p.[moe](T)p.d(T)[sp].d(T)[sp].d(T)[sp].d([m5C])[sp].d(T)[sp].d(A)[sp].d([m5C])[sp].d(A)[sp].d([m5C])[sp].d(T)[sp].[moe](G)p.[moe]([m5C])p.[moe](T)[sp].[moe](G)}$$$$ (last 3' nucleoside missing)” here?
Its 3 h FOB score is 1 score 0-7.

“RNA1{[moe](A)[sp].[moe](T)p.[moe](A)p.[moe](T)p.d(T)[sp].d(T)[sp].d(T)[sp].d(T)[sp].d([m5C])[sp].d(T)[sp].d(A)[sp].d([m5C])[sp].d(A)[sp].d([m5C])[sp].[moe](T)p.[moe](G)p.[moe]([m5C])p.[moe](T)[sp].[moe](G)}$$$$ (last 3' nucleoside missing)” was tested. Which 3 h FOB score did it give?
Its 3 h FOB score is 1 score 0-7.

With “RNA1{[moe](A)[sp].[moe](T)p.[moe](G)p.[moe](G)p.[moe](T)p.d(T)[sp].d(G)[sp].d(G)[sp].d(A)[sp].d(A)[sp].d(A)[sp].d(T)[sp].d(A)[sp].d([m5C])[sp].d(A)[sp].[moe](G)p.[moe]([m5C])p.[moe](T)[sp].[moe](G)}$$$$ (last 3' nucleoside missing)” as the substance, how does the 3 h FOB score read?
The 3 h FOB score was 1 score 0-7.

How did the 3 h FOB score turn out when “RNA1{[moe](A)[sp].[moe](T)p.[moe](G)p.[moe](T)p.[moe](A)p.[moe](A)p.d(T)[sp].d([m5C])[sp].d(A)[sp].d([m5C])[sp].d(T)[sp].d(T)[sp].d(T)[sp].d([m5C])[sp].d(A)[sp].d(T)[sp].[moe]([m5C])p.[moe]([m5C])[sp].[moe](A)}$$$$ (last 3' nucleoside missing)” was run?
The 3 h FOB score was 0 score 0-7.

How did the 3 h FOB score turn out when “RNA1{[moe](A)[sp].[moe](T)p.[moe](G)p.[moe](T)p.[moe](A)p.[moe](A)p.d([m5C])[sp].d([m5C])[sp].d(T)[sp].d(T)[sp].d(T)[sp].d(A)[sp].d(T)[sp].d(A)[sp].d([m5C])[sp].d(A)[sp].[moe](T)p.[moe](T)[sp].[moe](T)}$$$$ (last 3' nucleoside missing)” was run?
The 3 h FOB score was 0 score 0-7.

Which 3 h FOB score does the source give for “RNA1{[moe](A)[sp].[moe](T)p.[moe](G)p.[moe](T)p.[moe](A)p.d(A)[sp].d(T)[sp].d([m5C])[sp].d(A)[sp].d([m5C])[sp].d(T)[sp].d(T)[sp].d(T)[sp].d([m5C])[sp].d(A)[sp].[moe](T)p.[moe]([m5C])p.[moe]([m5C])[sp].[moe](A)}$$$$ (last 3' nucleoside missing)” here?
Its 3 h FOB score is 0 score 0-7.

“RNA1{[moe](A)[sp].[moe](T)p.[moe](G)p.[moe](T)p.[moe](A)p.d(A)[sp].d([m5C])[sp].d([m5C])[sp].d(T)[sp].d(T)[sp].d(T)[sp].d(A)[sp].d(T)[sp].d(A)[sp].d([m5C])[sp].[moe](A)p.[moe](T)p.[moe](T)[sp].[moe](T)}$$$$ (last 3' nucleoside missing)” was tested. Which 3 h FOB score did it give?
Its 3 h FOB score is 0 score 0-7.

How did the 3 h FOB score turn out when “RNA1{[moe](A)[sp].[moe](T)p.[moe](G)p.[moe](T)p.d(A)[sp].d(A)[sp].d(T)[sp].d([m5C])[sp].d(A)[sp].d([m5C])[sp].d(T)[sp].d(T)[sp].d(T)[sp].d([m5C])[sp].[moe](A)p.[moe](T)p.[moe]([m5C])p.[moe]([m5C])[sp].[moe](A)}$$$$ (last 3' nucleoside missing)” was run?
Its 3 h FOB score is 0.33 score 0-7.

How did the 3 h FOB score turn out when “RNA1{[moe](A)[sp].[moe](T)p.[moe](G)p.[moe](T)p.d(A)[sp].d(A)[sp].d([m5C])[sp].d([m5C])[sp].d(T)[sp].d(T)[sp].d(T)[sp].d(A)[sp].d(T)[sp].d(A)[sp].[moe]([m5C])p.[moe](A)p.[moe](T)p.[moe](T)[sp].[moe](T)}$$$$ (last 3' nucleoside missing)” was run?
The 3 h FOB score was 0 score 0-7.

“RNA1{[moe](A)[sp].[moe](T)p.[moe](G)p.[moe]([m5C])p.[moe](A)p.[moe](T)p.d(A)[sp].d(A)[sp].d(T)[sp].d([m5C])[sp].d([m5C])[sp].d([m5C])[sp].d(A)[sp].d(T)[sp].d(T)[sp].d(A)[sp].[moe](T)p.[moe](A)[sp].[moe]([m5C])}$$$$ (last 3' nucleoside missing)” was tested. Which 3 h FOB score did it give?
The 3 h FOB score was 0 score 0-7.

“RNA1{[moe](A)[sp].[moe](T)p.[moe](G)p.[moe]([m5C])p.d(A)[sp].d(T)[sp].d(A)[sp].d(A)[sp].d(T)[sp].d([m5C])[sp].d([m5C])[sp].d([m5C])[sp].d(A)[sp].d(T)[sp].[moe](T)p.[moe](A)p.[moe](T)p.[moe](A)[sp].[moe]([m5C])}$$$$ (last 3' nucleoside missing)” was tested. Which 3 h FOB score did it give?
The 3 h FOB score was 0 score 0-7.

Which 3 h FOB score does the source give for “RNA1{[moe](A)[sp].[moe](T)p.[moe](T)p.[moe](T)p.[moe]([m5C])p.[moe](T)p.d(A)[sp].d(T)[sp].d(A)[sp].d(A)[sp].d([m5C])[sp].d(T)[sp].d([m5C])[sp].d(A)[sp].d(G)[sp].d([m5C])[sp].[moe](A)p.[moe](A)[sp].[moe]([m5C])}$$$$ (last 3' nucleoside missing)” here?
The 3 h FOB score was 1 score 0-7.
